Literature values in patent US20250090693A1, “BIOCOMPATIBLE COMPOSITION FOR LABELING TARGET LESION, AND PREPARATION METHOD THEREFOR” (NATIONAL CANCER CENTER, priority 2022, published 2025).

In the case of `CC1(C)C(/C=C/C=C/C=C/C=C2\N(CCCCS(=O)(=O)O)c3ccc4ccccc4c3C2(C)C)=[N+](CCCCS(=O)(=O)[O-])c2ccc3ccccc3c21` [indocyanine green (ICG), indocyanine green], the clinical safety (18 breast cancer patients (T. Kitai, et al., Breast Cancer, 12:211-215, 2005)) is given as “safely used clinically” and the “time after injection until decomposed and disappearing or excreted through urine and feces” value (injected into the human body) is given as “about an hour”.
